Reference: patent US10562903B2, “Bridged piperidine derivatives” (Hoffmann-La Roche Inc., priority 2015, dated 2020)

What follows are molecules tested against γ-secretase (Homo sapiens, UniProt P49768) (assay: Cellular γ-secretase assay (inhibition of Aβ42 secretion, AlphaLisa)). Settings: Human neuroglioma H4 cells overexpressing human APP695 Swedish double mutation (K595N/M596L); 24 hr compound incubation; secreted Aβ42 in supernatant.
Type: cell-based
Protocol: Human neuroglioma H4 cells overexpressing human APP695 with the Swedish double mutation (K595N/M596L) were plated at 30,000 cells/well/100 μl in 96-well plates in IMDM media containing 10% FCS, 0.2 mg/l Hygromycin B and incubated at 37° C., 5% CO2.
3-4 hr post plating, compounds are a diluted in media and 50 μl is added as 1.5-fold concentrate to achieve the final concentration. Compound incubation is performed for 24 hr. Final doses typically range from 4 μM down to 0.0013 μM in half-log steps resulting in a eight point dose response curve.
Appropriate controls using vehicle only and reference compound were applied to this assay. The final concentration of Me2SO was 0.4%.
After incubation at 37° C., 5% CO2, the supernatant was subjected to quantification of secreted Aβ42 by the means of an AlphaLisa assay kit (Human Amyloid beta 1-42 Kit: Cat # AL203C, Perkin Elmer). 20 μl of the cell culture supernatant was transferred to an assay plate. Then 10 μl of a mixture of the AlphaLisa coupled capture antibody and the biotinylated detection antibody was added and incubated for 3 hours at room temperature while softly shaking the assay plate. After a further addition of 20 μl of the Donor beads the assay plate was incubated for 30 min at room temperature and constant shaking without exposure to direct light. The assay plate was then read on a Paradigm AlphaLisa Reader using the build-in program with excitation at 680 nm and emission at […].
The measured signals were then used to calculate IC50 values for inhibition of Aβ42 secretion by nonlinear regression fit analysis using XLfit 5.3 software (IDBS).

Row | Molecule | EC50
1 | N[(8 endo)-3-(6-methylpyrimidin-4-yl)-3-azabicyclo[3.2.1]octan-8-yl]-8-(2,2,3,3,3-pentafluoropropoxy)-[1,2,4]triazolo[1,5-a]pyridin-2-amine [Example 54] | 0.014 µM
2 | Cc1nsc(N2CC3CCC(C2)C3Nc2nc3c(OC(C)C(F)(F)F)cccn3n2)n1 (single isomer, unassigned) [Example 6, N-[(8 endo)-3-(3-methyl-1,2,4-thiadiazol-5-yl)-3-azabicyclo[3.2.1]octan-8-yl]-8-[(2S or 2R)-1,1,1-trifluoropropan-2-yl]oxy-[1,2,4]triazolo[1,5-a]pyridin-2-amine] | 0.016 µM
3 | Cc1nsc(N2CC3CCC(C2)C3Nc2nc3c(OC(C)C(F)(F)F)cccn3n2)n1 (single isomer, unassigned) [Example 5, N-[(8-endo)-3-(3-methyl-1,2,4-thiadiazol-5-yl)-3-azabicyclo[3.2.1]octan-8-yl]-8-[(2R or 2S)-1,1,1-trifluoropropan-2-yl]oxy-[1,2,4]triazolo[1,5-a]pyridin-2-amine] | 0.027 µM

The next lines start with the values.

Row | EC50 | Molecule
4 | 0.043 µM | Cc1noc(N2CC3CCC(C2)C3Nc2nc3c(O[C@H](C)C(F)(F)F)ccc(C(F)(F)F)n3n2)n1 (single isomer, unassigned) [Example 81, N-[(8-endo)-3-(3-methyl-1,2,4-oxadiazol-5-yl)-3-azabicyclo[3.2.1]octan-8-yl]-5-(trifluoromethyl)-8-[(1R or 1S)-2,2,2-trifluoro-1-methyl-ethoxy]-[1,2,4]triazolo[1,5-a]pyridin-2-amine]
5 | 0.006 µM | Cc1cc(N2CC3CCC(C2)C3Nc2nc3c(O[C@@H](C)C(F)(F)F)nccn3n2)sn1 (single isomer, unassigned) [Example 36, N-[(8 endo)-3-(3-methylisothiazol-5-yl)-3-azabicyclo[3.2.1]octan-8-yl]-8-((2S or 2R)-1,1,1-trifluoropropan-2-yl)oxy)-[1,2,4]triazolo[1,5-a]pyrazin-2-amine]
6 | 0.006 µM | Cc1cc(N2CC3CCC(C2)C3Nc2nc3c(O[C@H](C)C(F)(F)F)nccn3n2)sn1 (single isomer, unassigned) [Example 35, N-[(8 endo)-3-(3-methylisothiazol-5-yl)-3-azabicyclo[3.2.1]octan-8-yl]-8-((2R or 2S)-1,1,1-trifluoropropan-2-yl)oxy)-[1,2,4]triazolo[1,5-a]pyrazin-2-amine]
7 | 0.027 µM | Cc1cc(N2C[C@H]3CC[C@@H](C2)[C@H]3Nc2nc3c(OC(C)C(F)(F)F)cccn3n2)on1 (single isomer, unassigned) [Example 43, N-[(8 endo)-3-(3-methyl-1,2-oxazol-5-yl)-3-azabicyclo[3.2.1]octan-8-yl]-8-[(2R or 2S)-1,1,1-trifluoropropan-2-yl]oxy-[1,2,4]triazolo[1,5-a]pyridin-2-amine]
